We go through five compounds from ChEMBL document CHEMBL1139913, “Synthesis, biological evaluations, and tubulin binding poses of C-2alpha sulfur linked taxol analogues” (Bioorg Med Chem Lett, 2007).

Test [1] can be described thus: Cytotoxicity against A2780/AD cells by MTT assay. The test is classed as functional, cell-based. To be noted: Homo sapiens, A2780 ADR. For orientation: Tetrazolium dyes change colour on reduction, which living cells bring about.
Another test relates to A2780. As to the kind of experiment: Cytotoxicity against A2780 cells by MTT assay. Format: functional, cell-based. The settings on record: Homo sapiens.

A word on the IC50: it is the concentration needed to halve the response being measured. The low end stands for higher potency, the high end for lower potency. On to `CC(=O)O[C@H]1C(=O)[C@@]2(C)[C@H]([C@H](SC(=O)c3ccccc3)[C@]3(O)C[C@H](OC(=O)[C@H](O)[C@@H](NC(=O)c4ccccc4)c4ccccc4)C(C)=C1C3(C)C)[C@]1(OC(C)=O)CO[C@@H]1C[C@@H]2O`, for which the half-maximal inhibitory concentration (IC50) in test [1] turned out to be 27 µM; in the test on A2780, 11.7 µM.
For `CC(=O)O[C@H]1C(=O)[C@@]2(C)[C@H]([C@H](SCc3ccccc3)[C@]3(O)C[C@H](OC(=O)[C@H](O)[C@@H](NC(=O)c4ccccc4)c4ccccc4)C(C)=C1C3(C)C)[C@]1(OC(C)=O)CO[C@@H]1C[C@@H]2O` the same measures were 9.4 µM and 9.9 µM.
The matching figures for `CC(=O)O[C@H]1C(=O)[C@@]2(C)[C@H]([C@H](SC(=O)c3ccccc3)[C@]3(O)C[C@H](OC(=O)[C@H](O)[C@@H](NC(=O)OC(C)(C)C)c4ccccc4)C(C)=C1C3(C)C)[C@]1(OC(C)=O)CO[C@@H]1C[C@@H]2O`: 6.96 µM and 2.4 µM.
For `CC(=O)O[C@H]1C(=O)[C@@]2(C)[C@H]([C@H](SCc3ccccc3)[C@]3(O)C[C@H](OC(=O)[C@H](O)[C@@H](NC(=O)OC(C)(C)C)c4ccccc4)C(C)=C1C3(C)C)[C@]1(OC(C)=O)CO[C@@H]1C[C@@H]2O`, the values for the 50% inhibitory concentration (IC50) (in test [1]; in the test with A2780) were 8.3 µM and 3.5 µM, respectively.
On to `CC(=O)O[C@H]1C(=O)[C@@]2(C)[C@H]([C@H](OC(=O)c3ccccc3)[C@]3(O)C[C@H](OC(=O)[C@H](O)[C@@H](NC(=O)c4ccccc4)c4ccccc4)C(C)=C1C3(C)C)[C@]1(OC(C)=O)CO[C@@H]1C[C@@H]2O` [PACLITAXEL], for which the 50% inhibitory concentration (IC50) in test [1] is 0.92 µM; with A2780 it was 0.0016 µM.
